According to US20250250282A1, “NOVEL SEVEN-MEMBERED RING-FUSED COMPOUNDS” (PRISM Biolab Co., Ltd., priority 2022, published 2025):

System: CellSensor T-REx NICD CSL-bla HeLa cell line (Notch response element driving beta-lactamase reporter)
Assay: Notch assay (CSL-bla beta-lactamase reporter, DOX-inducible NICD)
Type: cell-based
Settings: Homo sapiens; 10 μM compound; HeLa/T-REx NICD CSL-bla cells, doxycycline-induced, 16-20 hours incubation; blue/green emission ratio
Procedure: We used the CellSensor T-REx™ NICD CSL-bla HeLa cell line, which was engineered by lentiviral transduction of HeLa cells with a Notch response element driving beta-lactamase reporter gene expression (CSL-bla) along with DOX (doxycycline)-inducible NICD (Notch intracellular domain) constructs. Addition of DOX to these cells allows for regulated NICD transcription factor expression and subsequent beta-lactamase expression.
Specifically, the following protocol was used.
• 1. Plate Cells: 32 μL/well of HeLa/T-REx™ NICD CSL-bla cells at 10^3 cells/well complete medium into 384-well plate. • 2. Prepare 10× compounds in assay medium. • 3. Add 4 μL compounds or 1% DMSO in assay medium to the cells. • 4. Add 4 μL 10× Doxycycline in Assay Medium to the treated wells, and 4 μL Assay Medium to the Untreated and cell free control wells. • 5. Incubate the assay plate in a humidified 37° C./5% CO2 incubator for 16-20 hours. • 6. Preparation of 6× LiveBLAzer™-FRET B/G Substrate (CCF4-AM) Mixture according to the manual and cell loading should be done in the absence of direct strong lighting. • 7. Remove assay plate from the humidified 37° C./5% CO2 incubator. Add 8 μl of 6× Substrate Mixture from […] to each well. Cover the plate to protect it from light and evaporation. Incubate at room temperature for 4 hours. • 8. Reading an Assay Plate using the following filter selections:
• 9. Data analysis: Use the assay plate layout to identify the location of the Cell-free wells. These control wells are used for background subtraction. Determine the average emission from the Cell-free wells at both 460 nm (Average Blue Background) and 530 nm (Average Green Background). Subtract the Average Blue Background (data collected at 460 nm) from all of the blue emission data. Subtract the Average Green background (data collected at 530 nm) from all of the green emission data. Calculate the Blue/Green Emission Ratio for each well, by dividing the background-subtracted blue emission values by the background-subtracted green emission values.

SMILES	inhibition at 10 µM
CC(C)C[C@@H]1CN2C(=O)CCN(C(=O)NCCC(c3ccccc3)c3ccccc3)C2CN(CCc2ccccc2)C1=O (stereo partly drawn) [ID-10, (7R)—N-(3,3-diphenylpropyl)-7-isobutyl-4,8-dioxo-9-phenethyloctahydropyrimido[1,2-a][1,4]diazepine-1(2H)-carboxamide]	50.3%
C[C@@H]1CN2C(=O)c3sccc3N(C(=O)NCCC(c3ccccc3)c3ccccc3)C2CN(Cc2ccc3ccccc3c2)C1=O (stereo partly drawn) [ID-29, (8R)—N-(3,3-diphenylpropyl)-8-methyl-6-(naphthalen-2-ylmethyl)-7,11-dioxo-4a,5,6,7,8,9-hexahydrothieno[3′,2′:4,5]pyrimido[1,2-a][1,4]diazepine-4(11H)-carboxamide]	56.7%
CC(C)[C@@H]1CN2C(=O)c3sccc3N(C(=O)NCc3ccccc3)C2CN(Cc2ccc3ccccc3c2)C1=O (stereo partly drawn) [ID-20, (8R)—N-benzyl-8-isopropyl-6-(naphthalen-2-ylmethyl)-7,11-dioxo-4a,5,6,7,8,9-hexahydrothieno[3′,2′:4,5]pyrimido[1,2-a][1,4]diazepine-4(11H)-carboxamide]	56.8%
CC(C)CCN1CC2N(C[C@@H](CC(C)C)C1=O)C(=O)c1sccc1N2C(=O)NCc1cccc2ccccc12 (stereo partly drawn) [ID-25, (8R)-8-isobutyl-6-isopentyl-N-(naphthalen-1-ylmethyl)-7,11-dioxo-4a,5,6,7,8,9-hexahydrothieno[3′,2′:4,5]pyrimido[1,2-a][1,4]diazepine-4(11H)-carboxamide]	52.8%
O=C1[C@H](Cc2ccccc2)CN2C(=O)c3sccc3N(C(=O)NCCc3ccccc3)C2CN1Cc1cccc2cccnc12 (stereo partly drawn) [ID-23, (8R)-8-benzyl-7,11-dioxo-N-phenethyl-6-(quinolin-8-ylmethyl)-4a,5,6,7,8,9-hexahydrothieno[3′,2′:4,5]pyrimido[1,2-a][1,4]diazepine-4(11H)-carboxamide]	54.6%
C[C@@H]1CN2C(=O)CCN(C(=O)NCc3cccc4ccccc34)C2CN(CC2CCCCC2)C1=O (stereo partly drawn) [ID-03, (7R)-9-(cyclohexylmethyl)-7-methyl-N-(naphthalen-1-ylmethyl)-4,8-dioxooctahydropyrimido[1,2-a][1,4]diazepine-1(2H)-carboxamide]	53.4%
O=C1[C@H](Cc2ccccc2)CN2C(=O)CCN(C(=O)NCCC(c3ccccc3)c3ccccc3)C2CN1Cc1ccccc1 (stereo partly drawn) [ID-08, (7R)-7,9-dibenzyl-N-(3,3-diphenylpropyl)-4,8-dioxooctahydropyrimido[1,2-a][1,4]diazepine-1(2H)-carboxamide]	64.9%
O=C1[C@H](Cc2ccc(O)cc2)CN2C(=O)c3sccc3N(C(=O)NCC3CCCCC3)C2CN1Cc1cccc2cccnc12 (stereo partly drawn) [ID-30, (8R)—N-(cyclohexylmethyl)-8-(4-hydroxybenzyl)-7,11-dioxo-6-(quinolin-8-ylmethyl)-4a,5,6,7,8,9-hexahydrothieno[3′,2′:4,5]pyrimido[1,2-a][1,4]diazepine-4(11H)-carboxamide]	61.2%
CC(C)CCN1CC2N(C[C@@H](Cc3ccccc3)C1=O)C(=O)CCN2C(=O)NCCC(c1ccccc1)c1ccccc1 (stereo partly drawn) [ID-06, (7R)-7-benzyl-N-(3,3-diphenylpropyl)-9-isopentyl-4,8-dioxooctahydropyrimido[1,2-a][1,4]diazepine-1(2H)-carboxamide]	51.8%
O=C1[C@H](Cc2ccc(O)cc2)CN2C(=O)CCN(C(=O)NCCC(c3ccccc3)c3ccccc3)C2CN1Cc1cccc2cccnc12 (stereo partly drawn) [ID-13, (7R)—N-(3,3-diphenylpropyl)-7-(4-hydroxybenzyl)-4,8-dioxo-9-(quinolin-8-ylmethyl)octahydropyrimido[1,2-a][1,4]diazepine-1(2H)-carboxamide]	53.7%
CCCCN1CC2N(C[C@@H](CC(C)C)C1=O)C(=O)c1sccc1N2C(=O)NCc1cccc2ccccc12 (stereo partly drawn) [ID-24, (8R)-6-butyl-8-isobutyl-N-(naphthalen-1-ylmethyl)-7,11-dioxo-4a,5,6,7,8,9-hexahydrothieno[3′,2′:4,5]pyrimido[1,2-a][1,4]diazepine-4(11H)-carboxamide]	51.1%
O=C1[C@H](Cc2ccc(O)cc2)CN2C(=O)CCN(C(=O)NCCC(c3ccccc3)c3ccccc3)C2CN1CCc1ccccc1 (stereo partly drawn) [ID-11, (7R)—N-(3,3-diphenylpropyl)-7-(4-hydroxybenzyl)-4,8-dioxo-9-phenethyloctahydropyrimido[1,2-a][1,4]diazepine-1(2H)-carboxamide]	64.1%
O=C1[C@H](Cc2ccccc2)CN2C(=O)CCN(C(=O)NCCC(c3ccccc3)c3ccccc3)C2CN1CCc1ccccc1 (stereo partly drawn) [ID-12, (7R)-7-benzyl-N-(3,3-diphenylpropyl)-4,8-dioxo-9-phenethyloctahydropyrimido[1,2-a][1,4]diazepine-1(2H)-carboxamide]	51.7%
CC(C)[C@@H]1CN2C(=O)CCN(C(=O)NCc3ccccc3)C2CN(Cc2ccc3ccccc3c2)C1=O (stereo partly drawn) [ID-01, (7R)—N-benzyl-7-isopropyl-9-(naphthalen-2-ylmethyl)-4,8-dioxooctahydropyrimido[1,2-a][1,4]diazepine-1(2H)-carboxamide]	54.7%
O=C1[C@H](Cc2ccc(O)cc2)CN2C(=O)c3sccc3N(C(=O)NCc3cccc4ccccc34)C2CN1CC1CCCCC1 (stereo partly drawn) [ID-27, (8R)-6-(cyclohexylmethyl)-8-(4-hydroxybenzyl)-N-(naphthalen-1-ylmethyl)-7,11-dioxo-4a,5,6,7,8,9-hexahydrothieno[3′,2′:4,5]pyrimido[1,2-a][1,4]diazepine-4(11H)-carboxamide]	54.4%
Cc1ccc(CNC(=O)N2c3ccsc3C(=O)N3C[C@@H](Cc4ccc(O)cc4)C(=O)N(CCC(C)C)CC32)cc1 (stereo partly drawn) [ID-37, (8R)-8-(4-hydroxybenzyl)-6-isopentyl-N-(4-methylbenzyl)-7,11-dioxo-4a,5,6,7,8,9-hexahydrothieno[3′,2′:4,5]pyrimido[1,2-a][1,4]diazepine-4(11H)-carboxamide]	66.3%
CC(C)CCN1CC2N(C[C@@H](Cc3ccccc3)C1=O)C(=O)c1sccc1N2C(=O)NCc1ccc2c(c1)OCO2 (stereo partly drawn) [ID-34, (8R)—N-(benzo[d][1,3]dioxol-5-ylmethyl)-8-benzyl-6-isopentyl-7,11-dioxo-4a,5,6,7,8,9-hexahydrothieno[3′,2′:4,5]pyrimido[1,2-a][1,4]diazepine-4(11H)-carboxamide]	52.4%
CC(C)[C@@H]1CN2C(=O)c3sccc3N(C(=O)NCc3cccs3)C2CN(Cc2ccc3ccccc3c2)C1=O (stereo partly drawn) [ID-35, (8R)-8-isopropyl-6-(naphthalen-2-ylmethyl)-7,11-dioxo-N-(thiophen-2-ylmethyl)-4a,5,6,7,8,9-hexahydrothieno[3′,2′:4,5]pyrimido[1,2-a][1,4]diazepine-4(11H)-carboxamide]	54.9%
O=C1[C@H](Cc2ccc(O)cc2)CN2C(=O)c3sccc3N(C(=O)NCCc3ccccc3)C2CN1Cc1cccc2ccccc12 (stereo partly drawn) [ID-22, (8R)-8-(4-hydroxybenzyl)-6-(naphthalen-1-ylmethyl)-7,11-dioxo-N-phenethyl-4a,5,6,7,8,9-hexahydrothieno[3′,2′:4,5]pyrimido[1,2-a][1,4]diazepine-4(11H)-carboxamide]	56.2%
O=C1[C@H](Cc2ccccc2)CN2C(=O)CCN(C(=O)NCC3CCCCC3)C2CN1Cc1cccc2ccccc12 (stereo partly drawn) [ID-16, (7R)-7-benzyl-N-(cyclohexylmethyl)-9-(naphthalen-1-ylmethyl)-4,8-dioxooctahydropyrimido[1,2-a][1,4]diazepine-1(2H)-carboxamide]	60.2%
CCCCN1CC2N(C[C@@H](Cc3ccc(O)cc3)C1=O)C(=O)c1sccc1N2C(=O)NCc1ccc2c(c1)OCO2 (stereo partly drawn) [ID-32, (8R)—N-(benzo[d][1,3]dioxol-5-ylmethyl)-6-butyl-8-(4-hydroxybenzyl)-7,11-dioxo-4a,5,6,7,8,9-hexahydrothieno[3′,2′:4,5]pyrimido[1,2-a][1,4]diazepine-4(11H)-carboxamide]	52.5%
CC(C)CCN1CC2N(C[C@@H](Cc3ccc(O)cc3)C1=O)C(=O)CCN2C(=O)NCCC(c1ccccc1)c1ccccc1 (stereo partly drawn) [ID-05, (7R)—N-(3,3-diphenylpropyl)-7-(4-hydroxybenzyl)-9-isopentyl-4,8-dioxooctahydropyrimido[1,2-a][1,4]diazepine-1(2H)-carboxamide]	51.5%
O=C1[C@H](Cc2ccc(O)cc2)CN2C(=O)CCN(C(=O)NCC3CCCCC3)C2CN1Cc1cccc2ccccc12 (stereo partly drawn) [ID-15, (7R)—N-(cyclohexylmethyl)-7-(4-hydroxybenzyl)-9-(naphthalen-1-ylmethyl)-4,8-dioxooctahydropyrimido[1,2-a][1,4]diazepine-1(2H)-carboxamide]	57.5%
CC(C)COC(=O)N1c2ccsc2C(=O)N2C[C@@H](Cc3ccc(O)cc3)C(=O)N(Cc3cccc4ccccc34)CC21 (stereo partly drawn) [ID-38, isobutyl (8R)-8-(4-hydroxybenzyl)-6-(naphthalen-1-ylmethyl)-7,11-dioxo-4a,5,6,7,8,9-hexahydrothieno[3′,2′:4,5]pyrimido[1,2-a][1,4]diazepine-4(11H)-carboxylate]	52.4%
